This is an account of results in US5460797A, “Method for fixing tissues and cells for analysis using oxazolidine compounds” (Streck Laboratories, Inc., priority 1994, dated 1995).

Like-named read-outs stand apart in the source and are kept apart here.

The test system of one data set is 6C3HED lymphosarcoma. As to the kind of experiment: Tumor immunization with fixed ascites cells and challenge with viable cells. In kind it is in vivo, C3H mice. The conditions noted are these: cells fixed in 3% agent; two immunizations; challenge 100,000 viable cells i.p.; ">65" is given as "No deaths at 65 days". How it is done: (§1) Tumor Immunization. 6C3HED lymphosarcoma was grown in C3H mice as ascites (ascites cause collection of fluid in the peritoneal cavity). The ascites cells were then washed in phosphate buffered saline (PBS) containing 3% IDU, 3% Glydant, or 3% Dimethylol urea. The cells were then placed at 6° C. for 48 hours.
As a control for immunization, cells were also washed into PBS containing 3% para formaldehyde and held under the same conditions. After 48 hours, all the cell groups were washed into PBS to remove the fixatives. The cell count was adjusted to 200,000/ml. Five C3H mice were injected with each of the cell groups for the first immunization. The procedure was repeated two weeks later.
The immunized mice were challenged with 100,000 viable 63HED ascites cells by intraperitoneal injection. The efficacy of the immunization was determined by the average death time for each group of mice.

The next data set concerns WBC's. Kind of data set: WBC fixation (cells do not disintegrate or clump after removal of compound). Format: cell-based. The conditions noted are these: 6% w/v solution, 24 hours, 22° C. The protocol: (§2) A 6% w/v solution of each compound was used and samples tested at 24 hours (22° C). […] Relative RBC fixation was detected by adding known RBC lysing agent. […] Fixing is relative and depends on how long you want cells or tissues to remain fixed.

For a further data set, the system named is RBC's. Kind of data set: Relative RBC fixation detected by adding RBC lysing agent. Format: cell-based. The conditions noted are these: 6% w/v solution, 24 hours, 22° C. How it is done: as §2
Data set [1] in a line: Formaldehyde content or release. Format: physicochemical.
Data set [2] concerns 6C3HED lymphosarcoma ascites cells. As to the kind of experiment: Vital staining of ascites cells held in fixative 48 hours. The following applies: 3% in PBS, 6° C. In kind it is cell-based, C3H mice. The protocol:
as §1

The subject of another data set is tetanus toxin. Format: in vivo, Swiss mice.
The next data set has as its system human white blood cells. Kind of data set: Stabilization of white blood cells for flow cytometry (leukocyte positive control). In kind it is cell-based. The text has this: Leukocyte Positive Control Check for Antigen-Antibody Studies. Positive control methods are needed to verify the performance of reagents, preparation methods, staining procedures as well as the performance of the flow cytometer instrumentation itself. This requires a preparation of human white blood cells, preferably with a mixed distribution of leukocytes (lymphocytes, monocytes, and granulocytes), to evaluate the performance of the procedure before it is used to evaluate subject tissues, cells, or cell components. While much of the methodology used in this procedure is familiar to those skilled in the art, this invention is novel in its use of imidazolidinyl urea (IDU) as a cell stabilizer, the use of polyethylene glycol to reduce damage to the white blood cells during processing, the use of PMSF to inhibit protease activity, and the process itself.
The invention discloses a new method of producing a positive control check material with significant advances over the prior art. Production is begun by placing one pack of human white blood cells, obtainable from commercial blood banks, in each bottle of the centrifuge. Samples from each pack are placed into a plastic tube for screening on the flow cytometer. Because of the considerable variation from donor to donor in cluster designation antigen sites, only packs with similar properties are pooled. Each product pool should be limited to a particular ABO blood type to prevent clumping as a result of a histoin-compatibility reaction between the cells. The samples are placed into plastic tubes rather than glass because unfixed white blood cells may be activated by the glass causing them to adhere to the glass and each other.
The cells are prefixed 1:1 with 1% IDU in phosphate buffered saline ethylenediaminetetraacetic acid (PBS-EDTA) at 6° C. for one hour. […] The cells and all diluents used in the processing must be kept at 6° C. at all times by use of refrigeration and a chiller bath to reduce the amount of cell damage which alters the scattergram.
The bottle are next centrifuged at 900 rpm for 10 minutes, and the supernatant is removed. This angular velocity is sufficient to pellet the white blood cells without damaging them. Ammonium chloride tris, 200 ml/bottle set at 6° C. for 20-30 minutes, is then used to lyse the red blood cells.
A second centrifugation follows, again at 900 rpm for 10 minutes, and the supernatant is removed. Next 250 ml/bottle of ammonium chloride tris are added at 6° C. or 45-60 minutes, with 60 minutes usually ensuring complete lysis of the red blood cells.
The material is then centrifuged a third time at 900 rpm for 10 minutes and then the supernatant is removed. […]
Background: In flow cytometry, cells or beads pass a laser one at a time.

A further data set concerns albumin. The following applies: 24 hours incubation. How it is done: Formaldehyde cross-links with itself and proteins to obscure the antigen. To determine if this is true, diazolidinyl urea was added to the protein, albumin.
Data set [3] is described as follows: Toxicity studies comparing diazolidinyl urea with formaldehyde. In kind it is in vivo. The following applies: for LD50: route and species not given. From the text: Unlike the typical histological fixing agents, the active agents of the invention have extremely low toxicity. For example, toxicity studies comparing diazolidinyl urea of the invention with formaldehyde of the prior art show the following: […]

Setting [4] is: solution (Glydant), as such (Suttocide).

For `O=C(NCO)NCO` [Dimethylol urea, dimethylol urea], the “Average Death Days” value in the data set with 6C3HED lymphosarcoma is on record as more than 65 days.
As to `O=[N+]([O-])C(Br)(CO)CO` [Bronopol, 2-bromo-2-nitropropane-1,3-diol], in the data set with WBC's, the “Fixation of WBC's” value is “Fixes both RBC's and WBC's”. In the data set on RBC's, the “Fixation of RBC's” value is “Fixes both RBC's and WBC's”. Also, the Formaldehyde release entry in data set [1] was “Decomposition liberates formaldehyde”.
For the molecule `CC1(C)C(=O)N(CO)C(=O)N1CO` [Glydant, Dimethylol-5,5-dimethylhydantoin], the “Fixation of WBC's” value with WBC's is “Fixes both RBC's and WBC's”. Besides, the “Viability by vital staining” value in [2] was “none of the cells were viable”. In the data set with 6C3HED lymphosarcoma, the “Average Death Days” value is reported as more than 65 days. Besides, in the data set with RBC's, the “Fixation of RBC's” value was “Fixes both RBC's and WBC's”. Moreover, the Formaldehyde content in [1] (setting [4]) was found to be 2.1%.
On to imidazolidinyl urea, for which the “Fixation of WBC's” value in the data set with WBC's was “Fixes both RBC's and WBC's”. For the same molecule, the “percent increase in antibody titer over formalin, 14 Days” value with tetanus toxin (14 days) is 200%. Moreover, the “percent increase in antibody titer over formalin, 28 Days” value in the data set on tetanus toxin (28 days) stood at 560%. The “Viability by vital staining” value in data set [2] was “none of the cells were viable”. The “Average Death Days” value with 6C3HED lymphosarcoma is given as more than 65 days. Besides, in the data set with RBC's, the “Fixation of RBC's” value was “Fixes both RBC's and WBC's”. Moreover, in [1], the Formaldehyde release result was “Decomposition releases formaldehyde”. Further, in the data set with human white blood cells (1% IDU in PBS-EDTA, 1:1, 6° C., one hour), the “Effect on white blood cells, prefixation” value is reported as “stabilize the white blood cells without interfering with the lysis of the red blood cells”. Moreover, the “Effect on cells, fixation” value in the data set with human white blood cells (3% IDU, 6° C., 2 days) is listed as “stabilizes the cells for use on the flow cytometer”. Further, the “Effect on cells, fixation at higher concentrations” value in the data set with human white blood cells (IDU concentrations higher than 3%) was “causing cells to lose the cluster designation marker and produce scatterplot changes”. Besides, the “Effect on cells, fixation at lower concentrations” value in the data set with human white blood cells (IDU concentrations lower than 3%) is “reducing stability”.
For “para formaldehyde [Control, reference compound]”, the “Average Death Days” value in the data set with 6C3HED lymphosarcoma turned out to be 10 days.
Regarding `C=O` [Formaldehyde, formaldehyde, reference compound], in the data set with albumin, the “Disc-gel electrophoresis result with albumin” value was “a large number of multimers and insoluble proteins result”. Moreover, in data set [3] (in vivo), the “Dermal Toxicity” value is reported as 270 mg/kg and the “Inhalation Toxicity” value worked out at 500 mg/kg. Further, the LD50 (commonly the dose at which mortality reaches 50%) in data set [3] (in vivo, read-out: LD50) was found to be 800 mg/kg.
Consider diazolidinyl urea, for which the “Disc-gel electrophoresis result with albumin” value in the data set on albumin is “no change in the rate of migration of the protein”. Also, the “Fixation of WBC's” value with WBC's is “Fixes both RBC's and WBC's”. For the same molecule, in the data set on RBC's, the “Fixation of RBC's” value was “Fixes both RBC's and WBC's”. Further, in data set [3] (in vivo), the “Dermal Toxicity” value was 2000 mg/kg and the “Inhalation Toxicity” value is given as “None”. The molecule also had an LD50 in data set [3] of 2570 mg/kg. Further, in [1], the Formaldehyde content is 1-2 ppm.
As to `O=C(O)CNCO` [Suttocide, Sodium hydroxymethyl glycinate], the “Fixation of WBC's” value in the data set on WBC's is “Fixes RBC's and WBC's”. Further, the “Fixation of RBC's” value in the data set on RBC's is “Fixes RBC's and WBC's”. The molecule also had a Formaldehyde content in data set [1] (setting [4]) of 1%.
